Experimental data published in patent US20150204851A1, “METHODS FOR IDENTIFYING DIABETES DRUGS” (Metanomics Health GmbH, priority 2012, published 2015).
Counter-ions that a name gives are not always drawn.

Columns and labels:
glyoxylate [1] = conditions: cultured human cells; Berman 2005; cited from earlier work
[2] = Mehta 2009; cited from earlier work
glyoxylate [3] = assay: Glyoxylate level in C. elegans after treatment, GC-MS; type: in vivo, Caenorhabditis elegans; conditions: for Effect on native/endogenous glyoxylate levels in C. elegans: single treatment: 50 mM metformin or 20 mM glyoxylate; for Ratio of glyoxylate concentrations in C. elegans, treatment/control: wild type on growth medium, 20 mM glyoxylate and/or 50 mM metformin, normalized to median of control
Procedure: Nematodes were harvested and extensively washed with buffer and the resulting pellet was disrupted using glass beats in combination with mechanical force. Samples were extracted with methyl-tert-butylether, methanol and extraction buffer and sonicated for 15 minutes. 50% of a mixture of water/methanol (3:1) was added, vigorously mixed and centrifuged. The polar phase was evaporated to dryness. After addition of water and a mixture of ethanol and dichlormethan, the sample was fractioned into an aqueous, polar phase and an organic, lipophilic phase. 13C-glyoxylate was added as internal standard and the extracts were derivatized in the following way: The methoximation of the carbonyl groups was carried out by reaction with methoxyamine hydrochloride (20 mg/mL in pyridine, 50 μL for 1.5 hours at 60° C.) in a tightly sealed vessel. Finally, the derivatization with 50 μL of N-methyl-N-(trimethylsilyl)-2,2,2-trifluoroacetamide (MSTFA) was carried out for 30 minutes at 60° C., again in the tightly sealed vessel. The final volume before injection into the GC was 100 μL. The GC-MS systems consist of an Agilent 6890 GC coupled to an Agilent 5973 MSD. Autosamplers were CompiPal or GCPaI from CTC.
For the analysis a usual commercial capillary separation column (30 m×0.25 mm×0.5 μm) with an arylene/poly-methyl-siloxane stationary phases was used (for example: DB-XLB, Agilent Technologies). 0.5 μL of the final volume was injected splitless and the oven temperature program was started at 70° C. and ended at 320° C. with different heating rates starting with low rates in order to achieve a sufficient chromatographic separation and number of scans for glyoxylate analysis and changing to a high heating rate after glyoxylate elution. Furthermore usual GC-MS standard conditions, for example constant flow with nominal 1 to 1.7 mL/min. and helium as the mobile phase gas and standard tune conditions were applied. Ionization was done by electron impact with 70 eV, scanning 2 characteristic mass fragments of the glyoxylate derivate and its internal standard, respectively within an appropriate time window. Scan rate was 25 scans/sec. Glyoxylate values were normalized to Total Ion Count of each sample to adjust individual deviation of sample volume. Furthermore, the data were normalized to the median of the control samples leading to ratios to control.
We tested the hypothesis that metformin suppresses glyoxylate concentration in in vivo experiments with the model worm Caenorhabditis elegans, by means of its treatment with glyoxylate and metformin separately and in combination of glyoxylate plus metformin.
The experiment included four treatment groups:
1) C. elegans, wild type (wt)—on growth medium (no treatment, control).
2) C. elegans, wt—on growth medium plus 50 mM metformin (methodology for Metformin application and doses as described in Onken & Driscoll (Onken B, Driscoll M (2010) Metformin induces a dietary restriction-like state and the oxidative stress response to extend C. elegans healthspan via AMPK, LKB1, and SKN-1. PLoS ONE 5(1): e8758.).
3) C. elegans, wt—on growth medium plus 20 mM glyoxylate.
4) C. elegans, wt—on growth medium plus 20 mM glyoxylate and 50 mM metformin.
From the GC-MS metabolite profiles, total ion count (TIC) as a measure of the absolute intensity value was calculated for each batch. Measured glyoxylate levels were then volume-normalized, using TICs.

glyoxylate [4] = assay: Plasma glyoxylate in rats dosed 28 days by gavage, GC-MS metabolite profiling; type: in vivo, rat; conditions: for Ratio treatment/control, plasma glyoxylate: gavage once daily
Procedure: Two groups of each 5 male and female rats was dosed once daily with the indicated compounds with a different dose per group (see below) over 28 days.
Each dose group in the studies consisted of five rats per sex. Additional groups of each 15 male and 15 female animals served as controls. Before starting the treatment period, animals, which were 62-64 days old when supplied, were acclimatized to the housing and environmental conditions for 7 days. All animals of the animal population were kept under the same constant temerature (20-24±3° C.) and the same constant humidity (30-70%). The animals of the animal population were fed ad libitum. The food to be used was essentially free of chemical or microbial contaminants. Drinking water was also offered ad libitum. Accordingly, the water was free of chemical and microbial contaminants as laid down in the European Drinking Water Directive 98/83/EG. The illumination period was 12 hours light followed by 12 hours darkness (12 hours light, from 6:00 to 18:00, and 12 hours darkness, from 18:00 to 6:00). The studies were performed in an AAALAC-approved laboratory in accordance with the German Animal Welfare Act and the European Council Directive 86/609/EE. The test system was arranged according to the OECD 407 guideline for the testing of chemicals for repeated dose 28-day oral toxicity study in rodents. The test substance was dosed and administered as follows:
Metformin hydrochloride was administered by gavage (high dose group at 1 g/kg body weight, low dose group at 0.2 g/kg body weight), in drinking water containing 0.5% Carboxymethyl cellulose (Tylose CB30000) (administration volume: 10 ml/kg body weight).
In the morning of day 7, 14, and 28, blood was taken from the retroorbital venous plexus from fasted anaesthetized animals. From each animal, 1 ml of blood was collected with EDTA as anticoagulant. The samples were centrifuged for generation of plasma. All plasma samples were covered with a N2 atmosphere and then stored at −80° C. until analysis.
For mass spectrometry-based metabolite profiling analyses plasma samples were extracted and a polar and a non-polar (lipid) fraction was obtained. For GC-MS analysis, the non-polar fraction was treated with methanol under acidic conditions to yield the fatty acid methyl esters. Both fractions were further derivatized with O-methyl-hydroxyamine hydrochloride and pyridine to convert Oxo-groups to O-methyloximes and subsequently with a silylating agent before analysis.
Following comprehensive analytical validation steps, the data for each analyte were normalized against data from pool samples. These samples were run in parallel through the whole process to account for process variability. The significance of treatment group values specific for sex, treatment duration and metabolite was determined by comparing means of the treated groups to the means of the respective untreated control groups using WELCH-test and quantified with treatment ratios versus control and p-values.

C. elegans = conditions: in vivo; cited from earlier work

SMILES: N=C(N)NN [Aminoguanidine, aminoguanidine]
- Scavenging of glyoxylate, diverting it from oxalate synthesis (glyoxylate [1]): demonstrated to scavenge glyoxylate
- Order of effectiveness for glyoxal trapping, amine-containing drugs [2]: aminoguanidine>>pyridoxamine>metformin

SMILES: O=CC(=O)O [Glyoxylate, glyoxylate]
- Effect on native/endogenous glyoxylate levels in C. elegans (glyoxylate [3]): significant increase of endogenous glyoxylate
- Ratio of glyoxylate concentrations in C. elegans, treatment/control (glyoxylate [3]): 1.81

SMILES: CN(C)C(=N)N=C(N)N [Metformin hydrochloride]
- Ratio treatment/control, plasma glyoxylate (glyoxylate [4]; High Dose 1 g/kg body weight, female rats, day 7 (f7)): 0.82
- Ratio treatment/control, plasma glyoxylate (glyoxylate [4]; High Dose 1 g/kg body weight, female rats, day 14 (f14)): 0.58
- Ratio treatment/control, plasma glyoxylate (glyoxylate [4]; High Dose 1 g/kg body weight, female rats, day 28 (f28)): 0.52
- Ratio treatment/control, plasma glyoxylate (glyoxylate [4]; High Dose 1 g/kg body weight, male rats, day 7 (m7)): 0.22
- Ratio treatment/control, plasma glyoxylate (glyoxylate [4]; High Dose 1 g/kg body weight, male rats, day 14 (m14)): 0.29
- Ratio treatment/control, plasma glyoxylate (glyoxylate [4]; High Dose 1 g/kg body weight, male rats, day 28 (m28)): 0.58
- Ratio treatment/control, plasma glyoxylate (glyoxylate [4]; Low Dose 0.2 g/kg body weight, female rats, day 7 (f7)): 1.01
- Ratio treatment/control, plasma glyoxylate (glyoxylate [4]; Low Dose 0.2 g/kg body weight, female rats, day 14 (f14)): 0.72
- Ratio treatment/control, plasma glyoxylate (glyoxylate [4]; Low Dose 0.2 g/kg body weight, female rats, day 28 (f28)): 0.64
- Ratio treatment/control, plasma glyoxylate (glyoxylate [4]; Low Dose 0.2 g/kg body weight, male rats, day 7 (m7)): 0.59
- Ratio treatment/control, plasma glyoxylate (glyoxylate [4]; Low Dose 0.2 g/kg body weight, male rats, day 14 (m14)): 0.65
- Ratio treatment/control, plasma glyoxylate (glyoxylate [4]; Low Dose 0.2 g/kg body weight, male rats, day 28 (m28)): 0.44

SMILES: CN(C)C(=N)N=C(N)N [Metformin, metformin]
- Effect on glyoxylate concentrations in a rat model system (glyoxylate [4]; summary of Table 2): strongly reducing glyoxylate concentrations
- Effect on glyoxylate-induced increase of endogenous glyoxylate in C. elegans (glyoxylate [3]; 50 mM metformin simultaneously to treatment with 20 mM glyoxylate): restored the native glyoxylate level
- Effect on native/endogenous glyoxylate levels in C. elegans (glyoxylate [3]): significantly decreased native glyoxylate levels
- Ratio of glyoxylate concentrations in C. elegans, treatment/control (glyoxylate [3]): 0.88
- Order of effectiveness for glyoxal trapping, amine-containing drugs [2]: aminoguanidine>>pyridoxamine>metformin
- Effect on lifespan in C. elegans (C. elegans): promote lifespan in C. elegans

SMILES: CC(=O)N[C@@H](CS)C(=O)O [N-acetyl-cysteine]
- Order of effectiveness for glyoxal trapping, thiol-containing drugs [2]: penicillamine>cysteine>N-acetyl-cysteine

SMILES: N[C@@H](CS)C(=O)O [cysteine]
- Order of effectiveness for glyoxal trapping, thiol-containing drugs [2]: penicillamine>cysteine>N-acetyl-cysteine

SMILES: CC(C)(S)[C@@H](N)C(=O)O [penicillamine]
- Order of effectiveness for glyoxal trapping, thiol-containing drugs [2]: penicillamine>cysteine>N-acetyl-cysteine
